Measured values reported in patent US9283261B2, “Linaclotide compositions” (Forest Laboratories Holdings Ltd., priority 2012, dated 2016).
Bridge positions count the residues as written; N and C are the ends. Peptide text beside a SMILES is read from it.

Tests used:
[1] = stability of linaclotide compositions with formaldehyde scavenger compounds, Cys1-IMD by RP-HPLC; format: physicochemical; details: 40° C., 75% relative humidity; for % Cys1-IMD after storage 4 Weeks / % Cys1-IMD after storage 8 Weeks / % Cys1-IMD after storage 13 Week: percent of chromatogram area, labeled canister (formaldehyde stressor); for % decrease in Cys1-IMD as compared to negative control (after 13 weeks) / % Cys1-IMD after storage 13 Week: 13 weeks
Protocol: 60 cc square HPDE bottle (with 33 mm caps with induction seals) were loaded with (i) capsules containing beads coated with 145 μg or 290 μg of linaclotide, a binder, calcium chloride and leucine with an approximate molar ratio of CaCl2:leucine:linaclotide of 60:30:1, (ii) either no formaldehyde scavenger compound (negative control) or a canister comprising one of the formaldehyde scavenger compounds disclosed in Table 3, and (iii) optionally a canister containing 3 grams of a silica gel desiccant.
In addition, some of the linaclotide compositions contained a formaldehyde stressor (in particular, an adhesive label on the desiccant canister that was applied by the manufacturer of the desiccant canister (Sud Chemie) (its presence in some linaclotide compositions is indicated in the table as “labeled canister”). Regarding the formaldehyde stressor canister, it was observed by applicants that the canister emits about 27.5 ug of formaldehyde in 24 hours at 60° C.
The linaclotide compositions were stored in a 40° C., 75% relative humidity stability chamber. Next, the quantity of Cys1-IMD in each linaclotide composition was determined following 4, 8 and 13 week storage via Reverse Phase-HPLC using a gradient elution with UV detection at 220 nm. Quantitation was based on percent of chromatogram area.
Test samples of linaclotide capsules are prepared by emptying the bead contents into flasks, adding diluent and shaking for 30 minutes. The analysis used the bead contents of a composite of 6 or 8 capsules (for 290 μg and 145 μg, respectively). Operating conditions for the analytical test method by HPLC are outlined in Table 2.

[2] = system: adult patients with IBS-C; test: double-blind placebo-controlled studies in IBS-C (Study 1 and Study 2); format: in vivo, human; details: 290 mcg discontinued
Protocol: In this regard, the efficacy of oral dosage forms comprising […] for the management of IBS-C was established in two double-blind, placebo-controlled, randomized, multicenter studies in adult patients. A total of 800 patients in Study 1 and 804 patients in Study 2 (overall mean age of 43.9 years [range 18-87 years with 5.3% ≧65 years of age], 90.1% female, 77.4% white, 18.8% black, and 12.0% Hispanic) received treatment with LINZESS 290 mcg or placebo once daily and were evaluated for efficacy. All patients met Rome II criteria for IBS and were required to report a mean abdominal pain score of ≧3 on a 0-to-10-point numeric rating scale, <3 complete spontaneous bowel movements (CSBMs; a CSBM is a spontaneous bowel movement [SBM] that is associated with a sense of complete evacuation; an SBM is a bowel movement occurring in the absence of laxative use), and ≦5 SBMs per week during a 2-week baseline period. The study designs were identical through the first 12 weeks, and thereafter differed only in that Study 1 included a 4-week randomized withdrawal (RW) period, and Study 2 continued for 14 additional weeks (total of 26 weeks) of double-blinded treatment.
Efficacy of the oral dosage form of linaclotide was assessed using responder and change-from-baseline endpoints. Results for endpoints were based on information provided daily by patients. […]

Row | SMILES | % Cys1-IMD after storage 4 Weeks [1] [%] | % Cys1-IMD after storage 8 Weeks [1] [%] | % decrease in Cys1-IMD as compared to negative control (after 13 weeks) [1] [%] | % Cys1-IMD after storage 13 Week [1] [%] | rebound of bowel symptoms after discontinuation (4-week RW period) [2]
1 | CC(C)C[C@H](N)C(=O)O [lyophilized leucine, leucine] | 0.52 | 0.78 | −61 | 1.36 | –
2 | C[C@@H]1NC(=O)[C@@H]2CCCN2C(=O)[C@H](CC(N)=O)NC(=O)[C@@H]2CSSC[C@H](N)C(=O)N[C@H]3CSSC[C@H](NC1=O)C(=O)N[C@@H]([C@@H](C)O)C(=O)NCC(=O)N[C@H](C(=O)N[C@@H](Cc1ccc(O)cc1)C(=O)O)CSSC[C@H](NC(=O)[C@H](Cc1ccc(O)cc1)NC(=O)[C@H](CCC(=O)O)NC3=O)C(=O)N2 [linaclotide] (H-CCEYCCNPACTGCY-OH; disulfide 1-6, 2-10, 5-13 (inferred); N-terminus and C-terminus assumed) | – | – | – | – | no evidence of rebound worsening
3 | NC(=O)C[C@H](N)C(=O)O [asparagine] | 0.56 | 1.11 | −59 | 1.45 | –
4 | CC(C)C[C@H](N)C(=O)O [leucine] | 0.84 | 1.26 | −31 | 2.44 | –
5 | NCC(=O)NCC(=O)O [glycine-glycine] (H-Gly-Gly-OH) | 0.89 | 1.40 | −44 | 1.98 | –
6 | CNC[C@H](O)[C@@H](O)[C@H](O)[C@H](O)CO [d-meglumine] | 0.59 | 0.81 | −76 | 0.84 | –
7 | N[C@@H](Cc1c[nH]cn1)C(=O)O [histidine] | 0.60 | 0.68 | −72 | 1.00 | –
8 | NCCCC[C@H](N)C(=O)O [lysine] | 0.87 | 1.27 | −47 | 1.87 | –
9 | COC(=O)[C@H](Cc1ccccc1)NC(=O)[C@@H](N)CC(=O)O [aspartame] (H-Asp-Phe-OMe) | 0.82 | 1.54 | −27 | 2.58 | –
